Each structure is given as a SMILES string.

The inhibition is the share of the control response that was lost under treatment. A low value points to little suppression.

Common to all, as to assay type: cell-based, human
In assay [1] the test system is IRF-1. As to the kind of experiment: TNF-alpha-induced IRF-1 RNA levels (Northern blot). Conditions: for % INIHIBITION of TNF-alpha-induced IRF-1 RNA levels: mean ± SD. The procedure:
(§1) Cell culture and treatment of HAEC: Human aortic endothelial cells (HAEC; Cambrex Bio Science Walkersville, Inc., Walkersville, Md.) are cultured in M199 supplemented with 8% FBS, 100 μg/ml heparin, 10 ng/ml endothelial growth factor, 100 μg/ml hypothalamus extract, 2 mM L-glutamine, 1% non-essential amino acids, 100 units/ml penicillin and 100 μg/ml streptomycin. HAEC are subcultured on gelatin pre-coated: 96-well tissue culture plates (Corning Incorporated; Corning, N.Y.) for viability assays and ELISA; 100-mm tissue culture dishes (BD Falcon; Franklin Lakes, N.J.) for Northern blot analyses, Western blot analyses and EMSA; 35-mm tissue culture dishes (Corning) for adhesion assays and on 24-well tissue culture plates for luciferase promoter assays (BD Falcon). All experiments are performed with confluent HAEC monolayers. Unless noted otherwise, HAEC are treated with 25 ng/ml TNF-α, in the absence or presence of C-10 or 0.25% DMSO (carrier control for C-10), for 2-24 hrs. The concentration of DMSO is held constant at 0.25% (unless indicated otherwise) for all of the C-10 conditions.
HAEC are washed with PBS and total RNA extracted using a commercial kit (RNeasy Mini Kit; Qiagen Inc.; Valencia, Calif.). 12 μg of total RNA per lane is resolved on 1% denaturing agarose gels containing 0.66M formaldehyde. Gels are capillary blotted on Nytran membranes (Schleicher and Schuell Inc.; Keene, N.H.), UV cross-linked, and used for hybridization. The probe for IRF-1 has been previously described (33). The G3PDH cDNA is from Clontech (Palo Alto, Calif.). […]; cDNAs are labeled with α-^32P-dCTP using the Ladderman Labeling Kit (Takara Biochemical Inc.; Berkeley, Calif.) (33). Northern blots are developed using a BAS 1500 Bioimaging Analyzer (Fuji Photo Film Co., Ltd. Medical Systems USA Inc.; Stanford, Calif.). Each experiment is replicated at least twice.

Another assay has as its system E-selectin. As to the kind of experiment: TNF-α induced E-selectin mRNA in HAEC (Northern blot). The method, then:
as §1
HAEC are washed with PBS and total RNA extracted using a commercial kit (RNeasy Mini Kit; Qiagen Inc.; Valencia, Calif.). 12 μg of total RNA per lane is resolved on 1% denaturing agarose gels containing 0.66M formaldehyde. […]

Assay [2] concerns IRF-1. The assay is described as follows: TNF-alpha-induced IRF-1 protein levels (Western blot). The method, then: as §1
Western blot analysis: Whole cell lysates are prepared in lysis buffer (150 mM NaCl, 1% IGEPAL CA-630, 50 mM Tris-HCL pH 8.0). 20 μg of lysates are then resolved on 4-12% Bis-Tris PAGE gels under denaturing conditions using the NuPAGE Bis-Tris System (Invitrogen; Carlsbad, Calif.). Proteins are transferred to nitrocellulose membranes, which are probed with IRF-1 antibody. Subsequent binding of HRP conjugated goat anti-rabbit Ab (sc-2054, Santa Cruz Biotechnology, Inc.) is detected using Lumigen PS-3 detection reagents (Amersham Pharmacia Biotech.; Piscataway, N.J.).

The subject of another assay is VCAM-1. The assay is described as follows: ELISA of TNF-α induced VCAM-1 protein on HAEC. The procedure: as §1
HAEC are washed with cold HBSS+, fixed in 1% formaldehyde at 4° C. for 20 min., washed with cold HBSS+, and incubated in cold M199 containing 8% FBS. Unless otherwise noted, from this point on all antibody dilutions and washes are carried out with M199 containing 8% FBS. Murine mAbs (primary mAbs) to ECAMs are added (10 μg/ml) and the HAEC incubated at 4° C. for 20 min. Following the incubation, the wells are washed and a peroxidase conjugated polyclonal (secondary) antibody to mouse IgG is added (diluted 1:50). After a 20 min. incubation at 4° C., the wells are washed and treated with OPD dissolved in phosphate citrate buffer containing sodium perborate. Following a 10 min. incubation at room temperature, the absorbance of the fluid in each well is determined at 450 nm using a micro-well plate spectrophotometer (Molecular Devices; Sunnyvale, Calif.). In every experiment, each condition is run in triplicate wells.
A general note: In an ELISA, binding on a coated surface is turned into a signal by an enzyme label.

In the next assay the test system is ICAM-1. As to the kind of experiment: ELISA of TNF-α induced ICAM-1 protein on HAEC. The procedure:
as §1, with “The concentration of DMSO is held constant at 0.25% (unless indicated otherwise) for all of the C-10 conditions.” left out
HAEC are washed with cold HBSS+, fixed in 1% formaldehyde at 4° C. for 20 min., washed with cold HBSS+, and incubated in cold M199 containing 8% FBS. […] Following a 10 min. incubation at room temperature, the absorbance of the fluid in each well is determined at 450 nm using a micro-well plate spectrophotometer (Molecular Devices; Sunnyvale, Calif.). […]

On to `Cn1c(-c2ccccc2)cnc1S` [5-Phenylmethimazole], for which the “effect on TNF-α induced IRF-1 mRNA expression in HAEC” value in the assay with IRF-1 [1] (0.5 mM or 1 mM, 2 hr. TNF-α) is reported as “reduces”. Moreover, the “% INIHIBITION of TNF-alpha-induced IRF-1 RNA levels” value worked out at 95 ± 15% in the assay on IRF-1 [1] (5 mM), 65 ± 16% in the assay on IRF-1 [1] (10 :M) and 90 ± 17% in the assay on IRF-1 [1] (100 :M). Moreover, in the assay on E-selectin (2 hr. TNF-α), the “effect on TNF-α induced E-selectin mRNA expression” value is “marginal effect”. Further, the “effect on TNF-α induced E-selectin mRNA” value in the assay with E-selectin (24 hr. TNF-α) was “reduced, in a dose dependent manner”. Moreover, the “effect on TNF-α induced IRF-1 protein expression” value in the assay with IRF-1 [2] (0.5 mM or 1 mM, 2 hr. TNF-α, HAEC) is listed as “reduced”. The “% INHIBITION of TNF-alpha-induced IRF-1 Protein levels” value in the assay with IRF-1 [2] (10 :M, mean ± SD) is given as 76 ± 12%. Besides, in the assay on IRF-1 [2] (Homo sapiens, 5 mM, mean ± SD), the inhibition at 5000 µM came to 95 ± 5%. For the same compound, the “concentration at which significant reduction of TNF-α induced VCAM-1 protein expression is observed” value in the assay with VCAM-1 (4 hr. TNF-α) is listed as at least 0.25 mM; in the assay on VCAM-1 (24 hr. TNF-α) it was at least 0.05 mM. Moreover, the “effect on TNF-α induced protein expression of VCAM-1” value in the assay on VCAM-1 (4 hr. TNF-α) and with VCAM-1 (24 hr. TNF-α) was “significantly reduces” throughout. Further, the “effect on TNF-α induced protein expression of ICAM-1” value with ICAM-1 (4 hr. TNF-α) was “little to no effect”; in the assay on ICAM-1 (24 hr. TNF-α), “no effect”.
